Assay results as given in a melting point compilation (Tetko et al.; mined from patent text by program, amines drawn as free bases though some values may be those of a salt).

SMILES	melting point [°C]
Cc1ccsc1C(=COCCN1CCC[C@@H](C(=O)O)C1)c1sccc1C	55 to 70
CN(C(=O)Cc1ccccc1)c1nn(C)c(-c2ccc(F)cc2)c1-c1ccncc1	170 to 171
COc1cc(S(N)(=O)=O)cnc1Cl	156 to 158
CN1C(O)=C(C(=O)Nc2ccccc2Cl)c2cscc2S1(=O)=O	152 to 155
CC(C)(C)OOC(C)(C)c1ccc(C(C)(C)OOC(C)(C)C)cc1	76 to 77
ClCc1ccc(OCc2coc(/C=C/c3ccccc3)n2)cc1	116 to 117
CC(C)(C)c1nc2c(N)nc(-c3ccncc3)nc2[nH]1	272 to 274
C=CS(=O)CCNC(=O)CCS(=O)(=O)CCCl (stereo unspecified)	108 to 109
CN(C)c1ccc(NC(=O)N(CCC2=CCCCC2)C[C@H]2CCC[C@H](CN(CCC3=CCCCC3)C(=O)Nc3ccc(N(C)C)cc3)C2)cc1 (relative stereo)	80 to 83
CCCCOc1ccc(CCCOC(=O)NS(=O)(=O)NCCOC(C)C)c(Oc2ncc(C(F)(F)F)cc2Cl)c1	91.4 to 91.6
OC1CSC(Oc2ccc(-c3ccncc3)nc2Cl)C(O)C1O (stereo unspecified)	186
COc1ccc(C#CC(O)c2cccc(CN(O)C(N)=O)c2)cc1OC (stereo unspecified)	146
CS(=O)(=O)OCCn1nccc1NC=O	101 to 104
CCCC1N=Cc2cc(Cl)nc(=O)n21 (stereo unspecified)	194 to 196
CC(C)(C)OC(=O)N1CCC(CCC(=O)N2CCC[C@@H](C(=O)O)C2)CC1	102 to 104
c1ccc(CNc2nnc(Cc3ccncc3)c3ccccc23)cc1	137 to 138
Cc1cccc(S(=O)(=O)N2Cc3ccccc3C2)c1	175 to 177
O=C(NC(C(=O)O)c1ccc2c(c1)CCO2)OCc1ccccc1 (stereo unspecified)	121 to 123
CCCCCCCCCCCCCCCCCCNC(=O)OCC(CNS(=O)(=O)CCCCl)n1nnnc1C (stereo unspecified)	74 to 77
O=C1Nc2ccccc2SC1CCCCO (stereo unspecified)	101 to 102
CC1CCc2ccc(OCC(O)CCl)cc2O1 (stereo unspecified)	70 to 72
Cc1cccnc1C=CCN1CCc2nc(N)sc2CC1	188 to 190
CCCSc1nc(NC2CC2c2ccc(OC)c(C)c2)c2nnn(C3CC(O)C(O)C3O)c2n1 (stereo unspecified)	135 to 136
COc1cc(Cc2cnc(N)nc2N)cc(C=Cc2ccccc2)c1OC	226
COC(=O)CCc1ccc(O)c([N+](=O)[O-])c1	60 to 62
Cc1cc(Oc2ccc(Cl)c(C(F)(F)F)c2)c(C)cc1N=CNC#N	111 to 114

SMILES	melting point [°C]
CC(C)(Oc1ccc(C(=O)CN2CCN(c3ccncc3)CC2)cc1)C(=O)O	163 to 167
COc1cc(CO)c(-n2cccc2)cc1OC	92 to 93
Cc1cc(N2CCN(C)CC2)n2nc(OCCO)c(S(=O)(=O)c3ccccc3)c2n1	178
CCOC(=O)C(C)(C)Oc1ccc(CNC(=O)c2sc(-c3ccc(C(C)C)cc3)nc2C)cc1C	129 to 131
CCCCCCCCCCCCCCCCCCOc1cc(N(CC(=O)OC)CC(=O)OC)cc([N+](=O)[O-])c1	68 to 74
Cc1cc(C2=NOC(c3cc(Cl)cc(Cl)c3)(C(F)(F)F)C2)ccc1C(=O)O (stereo unspecified)	146 to 148
BrCc1ccc(-c2ccc(CBr)cn2)nc1	188
CC(=O)Nc1c([N+](=O)[O-])cnn1-c1c(F)cc(C(F)(F)F)cc1Cl	129 to 130
Cc1cc2nc3c(nc2cc1[N+](=O)[O-])SC(C#N)=C(C#N)S3	155 to 157
CCCc1ccc(NC=C(C(=O)OCC)C(=O)c2ccccc2Cl)cc1	98.5 to 104
C[C@@H](CO)n1cc(C(=O)O)c(=O)c2cc(F)c(N3CCN(C)CC3)c(F)c21	250 to 255
COc1ccc2c(c1)S(=O)(=O)C(C(=O)Nc1ccc(F)cc1)C(=O)N2C (stereo unspecified)	202 to 204
COc1cc2c(Oc3ccc4[nH]cc(C)c4c3)ncnc2cc1OCCCN1CCCC1	75 to 77
COC(Cc1ccc(OCCc2nc(C(C)(C)C)oc2C)c2ccccc12)C(=O)O (stereo unspecified)	141 to 143
CC(=O)OC1C(N2CCCCC2)CC2C3CCC4CCC(N5CCCCC5)CC4(C)C3CCC21C (stereo unspecified)	156 to 161
C#CCCCCCCOC(=O)COc1ccc(F)c(C(N)=O)c1F	130 to 132
Cc1ccc(NC(=O)C(C)(C)C)c(-c2cccc(-c3cc(C)ccc3NC(=O)C(C)(C)C)n2)c1	181 to 184
NC(=O)CCn1c2ccc(O)cc2c2c3c(c(-c4c(Cl)cccc4Cl)cc21)C(=O)NC3=O	327 to 329
O=C(CN1C(=O)C(NC(=O)Nc2ccc(Cl)cc2)N=C(c2ccccc2)c2ccccc21)NCc1ccccc1 (stereo unspecified)	260 to 262
COc1cn(C(C)=O)c2ccc(F)c(Cl)c12	114 to 115
CC1=NC(NC(=O)Nc2cccc(C)c2)C(=O)N(CC(=O)C2CCCCCCC2)c2c(C)cccc21 (stereo unspecified)	163 to 164
Cc1nc2c(N)nc3ccccc3c2n1CCCCNC(=O)C1CCCCC1	192 to 193
CCN(CC)CCOc1ccc(C#CC(C)(C)O)cc1	64
CNc1cc(NS(=O)(=O)c2cccc(Cl)c2)nc(NC)n1	167 to 168
CC12CCC3C(CCC4CC(CC(=O)O)CCC43C)C1CCC2CC=O (stereo unspecified)	189 to 192
CCc1cccc2c(=O)c3c(cnn3C)[nH]c12	254

SMILES	melting point [°C]
O=C(O)c1ccc2c(c1)OCC(=O)N2Cc1ccccc1	230
CCOC(=O)c1ccc2c(c1)ncn2-c1cccc(COCc2ccccn2)c1	99.8 to 101
CC(C)(Sc1ccccc1)C(=O)O	62 to 64
O=C(C=Cc1ccc(OCc2ccccc2)c([N+](=O)[O-])c1)N1CCCCC1	155 to 156
CCC(Cl)C(=O)Nc1c(C(=O)CC(=O)Nc2nccs2)cccc1C(F)(F)F (stereo unspecified)	170
Cc1ccc(-c2c3c(cc4ccc(O)cc24)-c2ccc(O)cc2CO3)cc1	238 to 240
CC1=CC(=O)C(C)S(=O)(=O)N1C (stereo unspecified)	73 to 75
Nc1scc2c1C(=O)c1cc(Cl)c(Cl)cc1-2	272
COc1cc(Nc2nccc(NCc3ccccc3)n2)cc(OC)c1OC	135 to 136
CCOc1cc(C(CS(C)(=O)=O)N2C(=O)c3cccc(NS(C)(=O)=O)c3C2=O)ccc1OC (stereo unspecified)	191 to 193
COc1cc(Oc2cc(C(F)(F)F)nn2C)nc(Oc2cc(C(F)(F)F)nn2C)c1	107
CC(NC(=O)c1ccc([N+](=O)[O-])cc1)C(=O)O (stereo unspecified)	199 to 200
CC1CC(=O)N(c2ccccc2)c2cc(Cl)ccc2N1 (stereo unspecified)	167 to 168
CC(C)(C)c1cc(C(=O)CI)cc(C(C)(C)C)c1O	88 to 89
COc1cc2c(Nc3cccc(C)c3)ncnc2cc1OCCN1CCOCC1	168 to 170
CN1C(=O)c2c(F)c(F)c(F)c(F)c2C1=O	132
CC(C)(C)c1cc(CCc2nnc(N)o2)cc(C(C)(C)C)c1O	220 to 221
Oc1ccc(-c2cnc(S)o2)cc1O	215 to 218
COCc1nnc(-c2cccnc2)n1-c1c(Cl)c(Cl)cc2[nH]c(=O)c(=O)[nH]c12	222 to 224
O=C(O)c1cnc(Cl)nc1-c1ccccc1	105 to 110
NC(=O)c1cc(OCCNCC(O)COc2ccc(CCOCC3CC3)cc2)ccc1O (stereo unspecified)	149 to 150
OC1CCCc2c(-c3ccc4nc(-c5ccc(Cl)cc5)cn4c3)cccc21 (stereo unspecified)	218 to 220
CC(=O)CNC(=O)c1cc2c(nc(C)n2C)c2c1CCC1(Cc3ccccc3C1)N2	222 to 223
CON=C(C#N)C(=O)Nc1ccc(OC(F)C(F)(F)F)cc1 (stereo unspecified)	109 to 110
CCOC(=O)c1cc2cccc(N(C)S(=O)(=O)c3ccccc3OC)c2n1COC	124 to 125
COc1ccc(C2=NN(CCCCN)C(=O)[C@H]3CC=CC[C@@H]23)cc1OC (relative stereo)	108 to 109

SMILES	melting point [°C]
O=C(O)C1=Cc2c(F)cccc21	81 to 83
CCOC(=O)c1ccc(NC(=O)C=Cc2ccc3ccccc3c2)cc1	173 to 175
CCOC(=O)c1cc2cccc(OC)c2[nH]1	69 to 72
CCN(CC)CCc1c(C)[nH]c(C=C2C(=O)[NH+]([O-])N=C2c2cnccn2)c1C (stereo unspecified)	192
CCOC(=O)c1cn2c(C)c(C)nc2c(NCc2c(C)cccc2CC)n1	144
O=C(c1ccccc1)c1nc(-c2ccncc2)cs1	135 to 136
CN1CCCN(Cc2nc3ccccc3[nH]2)CC1	152 to 155
Cc1cc(OCCCCCl)cc(-c2ccc(F)cc2)n1	59 to 61
N#Cc1cnc2cc3c(cc2c1Nc1ccc(Cl)cc1Cl)OCCN3	254 to 255
O=C1CCC(N2Cc3c(OCc4ccc(CN5CCN(C(=O)C6CCCCC6)CC5)cc4)cccc3C2=O)C(=O)N1 (stereo unspecified)	215 to 217
CCCC=Cc1c(C(C)C)cc(C(C)C)c(CO)c1-c1ccc(F)cc1	85 to 95
O=C1CCCC2=C1C(c1cccc(F)c1)C1=C(CCCC1)N2 (stereo unspecified)	249 to 251
CCCc1nn(-c2ccc(C(F)(F)F)cn2)cc1CCCOc1c(C)cnn1CC(=O)O	145 to 146
Cc1cccc(C(=O)Nc2ccc(S(N)(=O)=O)cc2)c1SSc1c(C)cccc1C(=O)Nc1ccc(S(N)(=O)=O)cc1	308 to 309
CC(C)(C)c1cc(Sc2n[nH]c(=S)s2)cc(C(C)(C)C)c1O	181 to 186
CCOC(=O)CN=c1sc2ccccc2s1	88 to 89
CCCCCCCCCCCCCCCCCC(=O)N1CC2(CCCCC2)NC2(CCCCC2)C1	56 to 59
O=[N+]([O-])c1ccc(C(O)C(CO)N2CCC(Cc3ccccc3)CC2)cc1 (stereo unspecified)	122 to 124
CC1(C)COC(=N)N1c1nc(-c2ccc(C#N)cc2)cs1	158 to 161
Cn1c(C(F)(F)F)cc(=O)n(-c2ccc3snc(C(=O)O)c3c2)c1=O	149 to 152
COC(=O)C(Cc1ccc(-c2nc3ccc(OC)cc3n2C)cc1)N=[N+]=[N-] (stereo unspecified)	105 to 107
NC1C2CN(C(=O)Nc3ccc(F)cc3)CC12 (stereo unspecified)	150
CC(C)Cc1ccc(C(F)C(=O)O)cc1 (stereo unspecified)	64 to 66
